Test results as given in ChEMBL document CHEMBL1150490, “Endothelin eceptor Ligands. Multiple D-Amino acid replacement net approach” (Bioorg Med Chem Lett, 1993).

molecular target: T1, Endothelin-1 receptor (Mus musculus, UniProt Q61614); assay: Binding affinity for Endothelin A receptor was determined in murine 3T3 cells; type: cell-based, NIH3T3
T1 sequence (Q61614 whole entry): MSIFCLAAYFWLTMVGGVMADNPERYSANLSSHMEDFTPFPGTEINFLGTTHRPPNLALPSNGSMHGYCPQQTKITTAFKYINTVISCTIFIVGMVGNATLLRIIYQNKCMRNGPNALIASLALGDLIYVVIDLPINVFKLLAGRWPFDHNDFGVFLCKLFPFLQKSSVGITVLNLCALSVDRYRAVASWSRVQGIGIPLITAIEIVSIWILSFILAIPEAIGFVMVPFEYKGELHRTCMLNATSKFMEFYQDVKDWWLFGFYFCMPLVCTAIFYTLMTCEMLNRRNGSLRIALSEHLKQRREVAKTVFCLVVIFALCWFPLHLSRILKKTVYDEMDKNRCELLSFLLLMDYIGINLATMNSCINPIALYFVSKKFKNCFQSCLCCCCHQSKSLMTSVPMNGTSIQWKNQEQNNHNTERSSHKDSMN

| SMILES | IC50 [nM] |
| --- | --- |
| CC[C@H](C)[C@H](NC(=O)[C@@H](NC(=O)[C@@H](CC(=O)O)NC(=O)[C@H](N)CCCNC(=O)[C@H](Cc1ccccc1)NC(C)=O)[C@@H](C)CC)C(=O)N[C@@H](Cc1c[nH]c2ccccc12)C(=O)O | 250 |
| CC[C@H](C)[C@H](NC(=O)[C@H](CC(=O)O)NC(=O)[C@@H](N)CCCNC(=O)[C@H](Cc1ccccc1)NC(C)=O)C(=O)N[C@H](C(=O)N[C@@H](Cc1c[nH]c2ccccc12)C(=O)O)[C@@H](C)CC | 230 |
| CC[C@H](C)[C@H](NC(=O)[C@H](CC(=O)O)NC(=O)[C@H](N)CCCNC(=O)[C@H](Cc1ccccc1)NC(C)=O)C(=O)N[C@@H](C(=O)N[C@@H](Cc1c[nH]c2ccccc12)C(=O)O)[C@@H](C)CC | 900 |
